Eight molecules from patent US9145399B2, “Substituted bicyclic triazole derivatives as gamma secretase modulators” (Janssen Pharmaceuticals, Inc., priority 2010, dated 2015) can be followed below.

Each structure is given as a SMILES string.

For orientation: IC50 means the concentration at which inhibition is half-maximal.

The subject of experiment [1] is Aβ42. Description: Screening for γ-secretase-modulating activity in SKNBE2 cells carrying APP 695 wild type: Aβ42 in cell supernatant (Alphalisa). Format: cell-based. The following applies: Homo sapiens, SKNBE2, SKNBE2 cells carrying APP 695 wild type, overnight incubation. A digest of the protocol:
(§1)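 SKNBE2 cells expressing wild-type APP695 were incubated overnight at 37° C with test compound at several concentrations. Aβ42 and Aβtotal in supernatant were measured by AlphaLISA sandwich immunoassays. IC50 came from 4-parameter non-linear fits of percent of compound-free control versus log concentration.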
For orientation: Bead proximity is the source of the signal in Alpha formats.

The test system of experiment [2] is Aβtotal. Put plainly: Screening for γ-secretase-modulating activity in SKNBE2 cells carrying APP 695 wild type: Aβtotal in cell supernatant (Alphalisa). In kind it is cell-based. The following applies: Homo sapiens, overnight incubation. The method, boiled down:
as §1

Experiment [3] deals with Aβ42. Description: In vivo efficacy: Aβ42 lowering in brain of non-transgenic mice after single oral dose (ELISA). Set-up: species or system mouse. The following applies: Mus musculus; dose 30 mg/kg oral dosing; soluble brain fraction, animals sacrificed after 4 h; untreated animals (Ctrl) set at 100; read-out: Aβ42 (% vs Ctrl) _Mean. From the text:
(§2) To determine whether acute administration of an Aβ42 lowering agent would reduce Aβ42 levels in vivo, non-transgenic rodents, e.g. mice or rats were used. Animals treated with the Aβ42 lowering agent were examined and compared to those untreated or treated with vehicle and brain levels of soluble Aβ42 and total Aβ were quantitated by standard techniques, for example, using ELISA. Treatment periods varied from hours (h) to days and were adjusted based on the results of the Aβ42 lowering once a time course of onset of effect could be established.
(§3) A typical protocol for measuring Aβ42 lowering in vivo is shown but it is only one of many variations that could be used to optimize the levels of detectable Aβ. For example, Aβ42 lowering compounds were formulated in 20% of Captisol® (a sulfobutyl ether of β-cyclodextrin) in water or 20% hydroxypropyl β cyclodextrin. The Aβ42 lowering agents were administered as a single oral dose or by any acceptable route of administration to overnight fasted animals. After 4 h, the animals were sacrificed and Aβ42 levels were analysed.
(§4) Blood was collected by decapitation and exsanguinations in EDTA-treated collection tubes. Blood was centrifuged at 1900 g for 10 minutes (min) at 4° C. and the plasma recovered and flash frozen for later analysis. The brain was removed from the cranium and hindbrain. The cerebellum was removed and the left and right hemisphere were separated. The left hemisphere was stored at −18° C. for quantitative analysis of test compound levels. The right hemisphere was rinsed with phosphate-buffered saline (PBS) buffer and immediately frozen on dry ice and stored at −80° C. until homogenization for biochemical assays.
(§5) Mouse brains from non-transgenic animals were resuspended in 8 volumes of 0.4% DEA (diethylamine)/50 mM NaCl containing protease inhibitors (Roche-11873580001 or 04693159001) per gram of tissue, e.g. for 0.158 g brain, add 1.264 ml of 0.4% DEA. All samples were homogenized in the FastPrep-24 system (MP Biomedicals) using lysing matrix D (MPBio #6913-100) at 6 m/s for 20 seconds. Homogenates were centrifuged at 221.300×g for 50 min. The resulting high speed supernatants were then transferred to fresh eppendorf tubes. Nine parts of supernatant were neutralized with 1 part 0.5 M Tris-HCl pH 6.8 and used to quantify Aβtotal and Aβ42.
(§6) To quantify the amount of Aβtotal and Aβ42 in the soluble fraction of the brain homogenates, Enzyme-Linked-Immunosorbent-Assays were used. Briefly, the standards (a dilution of synthetic Aβ1-40 and Aβ1-42, Bachem) were prepared in 1.5 ml Eppendorf tube in Ultraculture, with final concentrations ranging from 10000 to 0.3 pg/ml. The samples and standards were co-incubated with HRPO-labelled N-terminal antibody for Aβ42 detection and with the biotinylated mid-domain antibody 4G8 for Aβtotal detection. 50 μl of conjugate/sample or conjugate/standards mixtures were then added to the antibody-coated plate (the capture antibodies selectively recognize the C-terminal end of Aβ42, antibody JRF/cAβ42/26, for Aβ42 detection and the N-terminus of Aβ, antibody JRF/rAβ/2, for Aβtotal detection). The plate was allowed to incubate overnight at 4° C. in order to allow formation of the antibody-amyloid complex. Following this incubation and subsequent wash steps the ELISA for Aβ42 quantification was finished by addition of Quanta Blu fluorogenic peroxidase substrate according to the manufacturer's instructions (Pierce Corp., Rockford, Il). A reading was performed after 10 to 15 min (excitation 320 nm/emission 420 nm).
In this model at least 20% Aβ42 lowering compared to untreated animals would be advantageous.
The results are shown in Table 4 (dose 30 mg/kg oral dosing) (value for untreated animals as control (Ctrl) was set at 100): […]
Background: An ELISA detects its analyte on a solid surface through an enzyme-linked reagent.

Experiment [4] has as its system Aβtotal. Put plainly: In vivo efficacy: Aβtotal in brain of non-transgenic mice after single oral dose (ELISA). Set-up: species or system mouse. The note with it: Mus musculus; dose 30 mg/kg oral dosing; soluble brain fraction, animals sacrificed after 4 h; untreated animals (Ctrl) set at 100; read-out: Aβtotal (% vs Ctrl)_Mean.
Source text: as §2, §3, §4, §5, §6
For Aβtotal detection, a Streptavidine-Peroxidase-Conjugate was added, followed 60 min later by an additional wash step and addition of Quanta Blu fluorogenic peroxidase substrate according to the manufacturer's instructions (Pierce Corp., Rockford, Ill). A reading was performed after 10 to 15 min (excitation 320 nm/emission 420 nm). […]

Regarding `COc1cc(Nc2nc3n(n2)CCCC3c2ccccc2Cl)ccc1-c1ccnc(C)c1` (racemic) [Compound 66, 8-(2-chlorophenyl)-5,6,7,8-tetrahydro-N-[3-methoxy-4-(2-methyl-4-pyridinyl)phenyl]-[1,2,4]triazolo[1,5-a]pyridin-2-amine], the IC50 in the experiment on Aβ42 [1] amounted to 35 nM; in the experiment with Aβtotal [2], 9120 nM. Moreover, the response vs control in vivo at 30 mg/kg in the experiment on Aβ42 [3] is 54%; in the experiment with Aβtotal [4], 92%.

With `COc1cc(Nc2nc3n(n2)CCN(C)C3c2ccccc2C(F)(F)F)ccc1-n1cnc(C)c1` (centres unmarked) [Compound 13, 5,6,7,8-tetrahydro-N-[3-methoxy-4-(4-methyl-1H-imidazol-1-yl)phenyl]-7-methyl-8-[2-(trifluoromethyl)phenyl]-[1,2,4]triazolo[1,5-a]pyrazin-2-amine], the IC50 with Aβ42 [1] was 9 nM; in the experiment with Aβtotal [2] it was 7760 nM. The response vs control in vivo at 30 mg/kg in the experiment on Aβ42 [3] was determined as 93%; in the experiment with Aβtotal [4], 100%.

Turning to `COc1cc(Nc2nc3n(n2)CCN(C(C)=O)C3c2ccccc2C(F)(F)F)ccc1-n1cnc(C)c1` (centres unmarked) [Compound 14, 7-acetyl-5,6,7,8-tetrahydro-N-[3-methoxy-4-(4-methyl-1H-imidazol-1-yl)phenyl]-8-[2-(trifluoromethyl)phenyl]-[1,2,4]triazolo[1,5-a]pyrazin-2-amine], the figures for the IC50 with Aβ42 [1] and in the experiment on Aβtotal [2] were 66 nM and greater than 10000 nM, respectively. The response vs control in vivo at 30 mg/kg with Aβ42 [3] was determined as 101%; in the experiment with Aβtotal [4] it was 119%.

For `Cc1cc(-c2ccc(Nc3nc4n(n3)CCCC4c3ccccc3C(F)(F)F)cc2)ccn1` (centres unmarked) [Compound 42, 5,6,7,8-tetrahydro-N-[4-(2-methyl-4-pyridinyl)phenyl]-8-[2-(trifluoromethyl)phenyl]-[1,2,4]triazolo[1,5-a]pyridin-2-amine], the IC50 in the experiment with Aβ42 [1] was 23 nM; in the experiment on Aβtotal [2] it was greater than 10000 nM. Moreover, the values for the response vs control in vivo at 30 mg/kg with Aβ42 [3] and in the experiment with Aβtotal [4] were 58% and 83%, respectively.

Turning to `COc1cc(Nc2nc3n(n2)CCCC3c2ccccc2C(F)(F)F)ccc1-c1ccnc(C)c1` (centres unmarked) [Compound 43, 5,6,7,8-tetrahydro-N-[3-methoxy-4-(2-methyl-4-pyridinyl)phenyl]-8-[2-(trifluoromethyl)phenyl]-[1,2,4]triazolo[1,5-a]pyridin-2-amine], the IC50 in the experiment on Aβ42 [1] is 16 nM; in the experiment with Aβtotal [2] it was 7080 nM. For the same molecule, the response vs control in vivo at 30 mg/kg came out at 71% in the experiment with Aβ42 [3] and 87% in the experiment on Aβtotal [4].

Consider `FC(F)(F)c1ccccc1C1CCCn2nc(Nc3ccc(-c4cccnc4)cc3)nc21` (centres unmarked) [Compound 46, 5,6,7,8-tetrahydro-N-[4-(3-pyridinyl)phenyl]-8-[2-(trifluoromethyl)phenyl]-[1,2,4]triazolo[1,5-a]pyridin-2-amine], for which the values for the IC50 in the experiment with Aβ42 [1] and in the experiment with Aβtotal [2] were 5250 nM and greater than 10000 nM, respectively. In addition, the response vs control in vivo at 30 mg/kg in the experiment on Aβ42 [3] was found to be 61%; with Aβtotal [4] it was 98%.

`COc1cc(Nc2nc3n(n2)C(c2ccccc2C(F)(F)F)CCC3)ccc1-c1ccnc(C)c1` (centres unmarked) [Compound 52, 5,6,7,8-tetrahydro-N-[3-methoxy-4-(2-methyl-4-pyridinyl)phenyl]-5-[2-(trifluoromethyl)phenyl]-[1,2,4]triazolo[1,5-a]pyridin-2-amine 1.8 HCl3H2O]: the values for the IC50 in the experiment with Aβ42 [1] and in the experiment on Aβtotal [2] were 182 nM and no less than 10000 nM, respectively. For the same molecule, the response vs control in vivo at 30 mg/kg was 45% in the experiment on Aβ42 [3] and 112% in the experiment with Aβtotal [4].

Regarding `COc1cc(Nc2nc3n(n2)CCOC3c2ccccc2C(F)(F)F)ccc1-c1ccnc(C)c1` (centres unmarked) [Compound 65, 5,6-dihydro-N-[3-methoxy-4-(2-methyl-4-pyridinyl)phenyl]-8-[2-(trifluoromethyl)phenyl]-8H-[1,2,4]triazolo[5,1-c][1,4]oxazin-2-amine], the results for the IC50 with Aβ42 [1] and in the experiment on Aβtotal [2] were 52 nM and greater than 10000 nM, respectively. For the same molecule, the figures for the response vs control in vivo at 30 mg/kg with Aβ42 [3] and with Aβtotal [4] were 64% and 101%, respectively.
